For one compound, mutagenic call results are on record in PubChem BioAssay AID1259407 (Chemical Carcinogenesis Research Information System (CCRIS), 2018).

In this series the test system is CCRIS mutagenicity, Ames/micronucleus/aberration tests. The series can be described thus: CCRIS mutagenicity studies.

Calls of active or inactive are those of the source. The rule behind the calls is not given here.

For `O=C([O-])c1cc(N=Nc2ccc(-c3ccc(N/N=c4/c(=O)cc/c(=N\Nc5cc(S(=O)(=O)[O-])ccc5[O-])c4=O)cc3)cc2)ccc1[O-].[Cu+2].[Na+].[Na+]`, the mutagenic call runs as follows: (End Point: IN VITRO CHROMOSOMAL ABERRATIONS, Test System: CHINESE HAMSTER OVARY CELLS, Metabolic Activation: NONE) “inactive; negative”; (End Point: IN VITRO CHROMOSOMAL ABERRATIONS, Test System: CHINESE HAMSTER OVARY CELLS, Metabolic Activation: RAT, LIVER, S-9, AROCLOR 1254) “inactive; negative”; (Test System: AMES SALMONELLA TYPHIMURIUM, Strain/Indicator: TA98, Metabolic Activation: HAMSTER, LIVER, S-9, Method: PREINCUBATION (PRIVAL METHOD)) “active; positive”; (Test System: AMES SALMONELLA TYPHIMURIUM, Strain/Indicator: TA98, Metabolic Activation: NONE, Method: STANDARD PLATE) “inactive; negative”; (Test System: AMES SALMONELLA TYPHIMURIUM, Strain/Indicator: TA98, Metabolic Activation: RAT, LIVER, S-9, AROCLOR 1254, Method: STANDARD PLATE) “inactive; negative”; (Test System: AMES SALMONELLA TYPHIMURIUM, Strain/Indicator: TA100, Metabolic Activation: NONE, Method: STANDARD PLATE) “inactive; negative”. Further, the mutagenic call was “inactive; negative” (Test System: AMES SALMONELLA TYPHIMURIUM, Strain/Indicator: TA100, Metabolic Activation: RAT, LIVER, S-9, AROCLOR 1254, Method: STANDARD PLATE); “inactive; negative” (Test System: AMES SALMONELLA TYPHIMURIUM, Strain/Indicator: TA1535, Metabolic Activation: NONE, Method: STANDARD PLATE); “inactive; negative” (Test System: AMES SALMONELLA TYPHIMURIUM, Strain/Indicator: TA1535, Metabolic Activation: RAT, LIVER, S-9, AROCLOR 1254, Method: STANDARD PLATE); “inactive; negative” (Test System: AMES SALMONELLA TYPHIMURIUM, Strain/Indicator: TA1537, Metabolic Activation: NONE, Method: STANDARD PLATE); “inactive; negative” (Test System: AMES SALMONELLA TYPHIMURIUM, Strain/Indicator: TA1537, Metabolic Activation: RAT, LIVER, S-9, AROCLOR 1254, Method: STANDARD PLATE); “inactive; negative” (Test System: AMES SALMONELLA TYPHIMURIUM, Strain/Indicator: TA1538, Metabolic Activation: NONE, Method: STANDARD PLATE). For the same compound, the mutagenic call (Test System: AMES SALMONELLA TYPHIMURIUM, Strain/Indicator: TA1538, Metabolic Activation: RAT, LIVER, S-9, AROCLOR 1254, Method: STANDARD PLATE) was “inactive; negative”.
